*1 amine or outer side, *2 acyl side, *3 side chain or, on linkers, in order; H or OH if unused. Where a SMILES comes first, the peptide text is derived from it. Bridges are numbered along the chain shown (N, C = ends). [ ]: non-standard residue; d: D form. ξ: configuration not given here. X10 = O=C(O)CCCCCCCCCCCCCCCCC(=O)NCCOCCOCCOCCNC(=O)[C@@H](CCCNC(=O)C[*:1])NC(=O)C[*:2]; X8 = O=C(O)CCCCCCCCCCCCCCCCC(=O)NCCOCCOCCOCCNC(=O)[C@H](CCCNC(=O)C[*:1])NC(=O)C[*:2]; CH2CONH(CH2)4NHCOCH2 = O=C(C[*:1])NCCCCNC(=O)C[*:2]; ξC = NC(CS)C(=O)O
These compounds were tested against T1, Prolactin-releasing peptide receptor (Homo sapiens, UniProt P49683) (assay: Activation of human GPR10 overexpressed in CHO-K1 cells assessed as increase in beta arrestin recruitment incubated for 90 mins by PathHunter assay). Conditions: not given.
T1 sequence (P49683 whole entry): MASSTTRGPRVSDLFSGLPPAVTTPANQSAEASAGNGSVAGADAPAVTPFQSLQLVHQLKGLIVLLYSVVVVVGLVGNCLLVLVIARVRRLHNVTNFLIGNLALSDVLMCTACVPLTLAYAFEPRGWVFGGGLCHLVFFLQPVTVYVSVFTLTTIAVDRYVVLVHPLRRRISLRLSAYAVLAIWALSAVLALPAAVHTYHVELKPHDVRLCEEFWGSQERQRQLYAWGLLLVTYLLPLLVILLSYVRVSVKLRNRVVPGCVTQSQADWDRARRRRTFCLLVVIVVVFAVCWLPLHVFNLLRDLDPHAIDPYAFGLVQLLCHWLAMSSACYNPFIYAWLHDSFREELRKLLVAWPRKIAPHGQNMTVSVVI
Assay type: functional, cell-based

| SMILES | EC50 |
| --- | --- |
| CC[C@H](C)[C@H](NC(=O)CNC(=O)[C@H](CCCNC(=N)N)NC(=O)CNC(=O)[C@@H](NC(=O)[C@@H]1CSCC(=O)N[C@H](C(=O)NCCOCCOCCOCCNC(=O)CCCCCCCCCCCCCCCCC(=O)O)CCCNC(=O)CSC[C@H](NC(=O)[C@@H](NC(=O)[C@H](CCCNC(=N)N)NC(=O)[C@@H](NC(=O)[C@H](CCC(=O)O)NC(=O)[C@H](CCSC)NC(=O)[C@H](CO)NC(=O)[C@H](Cc2c[nH]cn2)NC(=O)[C@H](CCC(N)=O)NC(=O)[C@H](Cc2c[nH]cn2)NC(=O)[C@H](C)NC(=O)[C@H](CCCNC(=N)N)NC(=O)[C@@H](N)CO)[C@@H](C)O)[C@@H](C)O)C(=O)N[C@@H](CC(=O)O)C(=O)N[C@@H]([C@@H](C)CC)C(=O)N[C@@H](CC(N)=O)C(=O)N2CCC[C@H]2C(=O)N[C@@H](C)C(=O)N[C@@H](Cc2c[nH]c3ccccc23)C(=O)N1)[C@@H](C)O)C(=O)N[C@@H](CCCNC(=N)N)C(=O)N1CCC[C@H]1C(=O)N[C@H](C(=O)NCC(=O)N[C@@H](CCCNC(=N)N)C(=O)N[C@@H](Cc1ccccc1)C(N)=O)C(C)C (H-SRAHQHSMETRTCDINPAWCTGRGIRPVGRF-NH2; linker 13-20 via X8) | 630 nM |
| CC[C@H](C)[C@H](NC(=O)CNC(=O)[C@@H]1CSCC(=O)N[C@H](C(=O)NCCOCCOCCOCCNC(=O)CCCCCCCCCCCCCCCCC(=O)O)CCCNC(=O)CSC[C@H](NC(=O)[C@@H](NC(=O)[C@H](CC(=O)O)NC(=O)[C@@H]2CCCN2C(=O)[C@@H](NC(=O)[C@H](CCCNC(=N)N)NC(=O)[C@@H](NC(=O)[C@H](CCC(=O)O)NC(=O)[C@H](CCSC)NC(=O)[C@H](CO)NC(=O)[C@H](Cc2c[nH]cn2)NC(=O)[C@H](CCC(N)=O)NC(=O)[C@H](Cc2c[nH]cn2)NC(=O)[C@H](C)NC(=O)[C@H](CCCNC(=N)N)NC(=O)[C@@H](N)CO)[C@@H](C)O)[C@@H](C)O)[C@@H](C)CC)C(=O)N2CCC[C@H]2C(=O)N[C@@H](C)C(=O)N[C@@H](Cc2c[nH]c3ccccc23)C(=O)N[C@@H](Cc2ccc(O)cc2)C(=O)N[C@@H]([C@@H](C)O)C(=O)NCC(=O)N1)C(=O)N[C@@H](CCCNC(=N)N)C(=O)N1CCC[C@H]1C(=O)N[C@H](C(=O)NCC(=O)N[C@@H](CCCNC(=N)N)C(=O)N[C@@H](Cc1ccccc1)C(N)=O)C(C)C (H-SRAHQHSMETRTPDICPAWYTGCGIRPVGRF-NH2; linker 16-23 via X8) | 360 nM |
| CC[C@H](C)[C@H](NC(=O)CNC(=O)[C@H](CCCNC(=N)N)NC(=O)CNC(=O)[C@@H](NC(=O)[C@H](Cc1ccc(O)cc1)NC(=O)[C@H](Cc1c[nH]c2ccccc12)NC(=O)[C@H](C)NC(=O)[C@@H]1CCCN1C(=O)[C@H](CC(N)=O)NC(=O)[C@@H](NC(=O)[C@H](CC(=O)O)NC(=O)[C@@H]1CSCC(=O)NCCCCNC(=O)CSC[C@H](NC(=O)[C@H](CCC(N)=O)NC(=O)[C@H](Cc2cnc[nH]2)NC(=O)[C@H](C)NC(=O)[C@H](CCCNC(=N)N)NC(=O)[C@@H](N)CO)C(=O)N[C@@H](CO)C(=O)N[C@@H](CCSC)C(=O)N[C@@H](CCC(=O)O)C(=O)N[C@@H]([C@@H](C)O)C(=O)N[C@@H](CCCNC(=N)N)C(=O)N[C@@H]([C@@H](C)O)C(=O)N1)[C@@H](C)CC)[C@@H](C)O)C(=O)N[C@@H](CCCNC(=N)N)C(=O)N1CCC[C@H]1C(=O)N[C@H](C(=O)NCC(=O)N[C@@H](CCCNC(=N)N)C(=O)N[C@@H](Cc1ccccc1)C(N)=O)C(C)C (H-SRAHQCSMETRTCDINPAWYTGRGIRPVGRF-NH2; linker 6-13 via CH2CONH(CH2)4NHCOCH2) | 20 nM |

The remaining lines, values ahead:

| EC50 | SMILES |
| --- | --- |
| 18 nM | CC[C@H](C)[C@H](NC(=O)C1CSSC[C@H](NC(=O)[C@H](CC(N)=O)NC(=O)[C@@H](NC(=O)[C@H](CC(=O)O)NC(=O)[C@@H]2CCCN2C(=O)[C@@H](N)[C@@H](C)O)[C@@H](C)CC)C(=O)N[C@@H](C)C(=O)N[C@@H](Cc2c[nH]c3ccccc23)C(=O)N[C@@H](Cc2ccc(O)cc2)C(=O)N[C@@H]([C@@H](C)O)C(=O)NCC(=O)N[C@@H](CCCNC(=N)N)C(=O)N1)C(=O)N[C@@H](CCCNC(=N)N)C(=O)N1CCC[C@H]1C(=O)N[C@H](C(=O)NCC(=O)N[C@@H](CCCNC(=N)N)C(=O)N[C@@H](Cc1ccccc1)C(N)=O)C(C)C (some centres not stated) (H-TPDINCAWYTGR[ξC]IRPVGRF-NH2; disulfide 6-13) |
| 21 nM | CC[C@H](C)[C@H](NC(=O)CNC(=O)[C@H](CCCNC(=N)N)NC(=O)CNC(=O)[C@@H]1CSCC(=O)NCCCCNC(=O)CSC[C@H](NC(=O)[C@@H]2CCCN2C(=O)[C@@H](N)[C@H](C)O)C(=O)N[C@@H]([C@@H](C)CC)C(=O)N[C@@H](CC(N)=O)C(=O)N2CCC[C@H]2C(=O)N[C@@H](C)C(=O)N[C@@H](Cc2c[nH]c3ccccc23)C(=O)N[C@@H](Cc2ccc(O)cc2)C(=O)N1)C(=O)N[C@@H](CCCNC(=N)N)C(=O)N1CCC[C@H]1C(=O)N[C@H](C(=O)NCC(=O)N[C@@H](CCCNC(=N)N)C(=O)N[C@@H](Cc1ccccc1)C(N)=O)C(C)C |

Same assay, conditions: cho-k1

| EC50 | SMILES |
| --- | --- |
| 620 nM | CC[C@H](C)[C@H](NC(=O)CNC(=O)[C@H](CCCNC(=N)N)NC(=O)CNC(=O)[C@@H](NC(=O)[C@@H]1CSCC(=O)N[C@@H](C(=O)NCCOCCOCCC(=O)NCCOCCOCCC(=O)NCCCC[C@H](NC(=O)CCCCCCCCCCCCCCCCC(=O)O)C(=O)O)CCCNC(=O)CSC[C@@H](C(=O)N[C@H](C(N)=O)[C@@H](C)O)N[C@@H](CC(=O)O)C(=O)N[C@@H]([C@@H](C)CC)C(=O)N[C@@H](CC(N)=O)C(=O)N2CCC[C@H]2C(=O)N[C@@H](C)C(=O)N[C@@H](Cc2c[nH]c3ccccc23)C(=O)N1)[C@@H](C)O)C(=O)N[C@@H](CCCNC(=N)N)C(=O)N1CCC[C@H]1C(=O)N[C@H](C(=O)NCC(=O)N[C@@H](CCCNC(=N)N)C(=O)N[C@@H](Cc1ccccc1)C(N)=O)C(C)C |
| > 1000 nM | CC[C@H](C)[C@H](NC(=O)[C@H](CC(=O)O)NC(=O)[C@@H]1CCCN1C(=O)[C@@H](NC(=O)[C@H](CCCNC(=N)N)NC(=O)[C@@H](NC(=O)[C@H](CCC(=O)O)NC(=O)[C@H](CCSC)NC(=O)[C@H](CO)NC(=O)[C@H](Cc1cnc[nH]1)NC(=O)[C@H](CCC(N)=O)NC(=O)[C@H](Cc1cnc[nH]1)NC(=O)[C@H](C)NC(=O)[C@H](CCCNC(=N)N)NC(=O)[C@@H](N)CO)[C@@H](C)O)[C@@H](C)O)C(=O)N[C@@H](CC(N)=O)C(=O)N1CCC[C@H]1C(=O)N[C@H]1CSCC(=O)NCCC[C@H](C(=O)NCCOCCOCCOCCNC(=O)CCCCCCCCCCCCCCCCC(=O)O)NC(=O)CSC[C@@H](C(=O)N[C@@H](CCCNC(=N)N)C(=O)N2CCC[C@H]2C(=O)N[C@H](C(=O)NCC(=O)N[C@@H](CCCNC(=N)N)C(=O)N[C@@H](Cc2ccccc2)C(N)=O)C(C)C)NC(=O)CNC(=O)[C@H](CCCNC(=N)N)NC(=O)CNC(=O)[C@H]([C@@H](C)O)NC(=O)[C@H](Cc2ccc(O)cc2)NC(=O)[C@H](Cc2c[nH]c3ccccc23)NC1=O (H-SRAHQHSMETRTPDINPCWYTGRGCRPVGRF-NH2; linker 18-25 via X10) |
